The text below walks through data of patent US20120244071A1, “FTY720 HALOGENATED DERIVATIVES” (Novartis AG, priority 2009, published 2012).

Test [1] deals with T1, S1P3 (Homo sapiens, UniProt Q99500). The test is described as follows: GTPγS binding assay using S1P receptor/CHO membranes preparation. The test is classed as biochemical. Details: expressed in transfected cells; membrane preparation. The following applies: [35S]GTPγS, CHO membranes, SPA. As for the experimental part: (§1) GTPγS Binding Assay Using S1P Receptor/CHO Membranes Preparation
(§2) The assay is based on the SPA technology (Amersham) and run in a 96 well format. Membranes are prepared from CHO cells stably expressing the S1P receptor of interest. Aliquots are stored at −80° C. Membranes (5-10 μg/well) resuspended in assay buffer (20 mM HEPES, pH7.4, 100 mM NaCl, 10 mM MgCl2 and 0.1% fat free BSA) containing 25 μg/mL Saponin and 10 μM GDP are mixed WGA-coated SPA beads (final conc. 1 mg/well). Ligand and [^35S]GTPγS (1250 Ci/mmol, final concentration 0.2 nM) are added and the plate sealed. After incubation at room temperature for 120 minutes under constant shaking the plates are centrifuged for 10 minutes at 1000×g to pellet the SPA beads. Then the plates are measured in a TopCount NXT instrument (Packard) and the data analyzed using GraphPad PRISM software.
On the technique in general: GTPγS is a poorly hydrolysed GTP analogue; its binding reports G protein activation.
Target sequence in this assay (Q99500 whole entry): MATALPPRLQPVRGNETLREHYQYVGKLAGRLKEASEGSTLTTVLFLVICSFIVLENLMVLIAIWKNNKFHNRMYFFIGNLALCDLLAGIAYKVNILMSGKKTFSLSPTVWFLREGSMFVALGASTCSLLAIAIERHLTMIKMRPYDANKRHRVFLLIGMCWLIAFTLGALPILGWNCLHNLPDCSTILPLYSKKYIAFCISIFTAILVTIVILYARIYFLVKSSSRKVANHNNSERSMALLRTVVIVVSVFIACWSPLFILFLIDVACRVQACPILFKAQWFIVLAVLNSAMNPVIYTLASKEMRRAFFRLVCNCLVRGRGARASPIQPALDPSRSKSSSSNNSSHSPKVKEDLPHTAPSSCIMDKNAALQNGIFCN

Test [2] has as its target T2, S1P4 (Homo sapiens, UniProt O95977).
T2 sequence (O95977 1-384): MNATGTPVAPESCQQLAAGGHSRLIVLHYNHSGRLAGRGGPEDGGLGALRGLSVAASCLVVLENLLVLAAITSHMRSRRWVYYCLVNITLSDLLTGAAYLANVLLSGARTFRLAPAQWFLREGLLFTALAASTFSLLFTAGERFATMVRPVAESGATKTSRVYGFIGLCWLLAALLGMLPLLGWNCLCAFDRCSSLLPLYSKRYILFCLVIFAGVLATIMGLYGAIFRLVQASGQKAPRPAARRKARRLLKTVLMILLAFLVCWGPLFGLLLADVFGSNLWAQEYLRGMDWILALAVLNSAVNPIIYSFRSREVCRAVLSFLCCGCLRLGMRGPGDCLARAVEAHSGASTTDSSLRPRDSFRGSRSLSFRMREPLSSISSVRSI
The description is as above. The test is classed as biochemical. To be noted: [35S]GTPγS, CHO membranes, SPA. Details: expressed in transfected cells; membrane preparation. On the procedure:
as §1, §2

The target of test [3] is T3, S1P1 (Homo sapiens, UniProt P21453). Described as above. The following applies: [35S]GTPγS, CHO membranes, SPA. Details: expressed in transfected cells; membrane preparation. The test is classed as biochemical. On the procedure:
as §1, §2
Target sequence in this assay (P21453 whole entry): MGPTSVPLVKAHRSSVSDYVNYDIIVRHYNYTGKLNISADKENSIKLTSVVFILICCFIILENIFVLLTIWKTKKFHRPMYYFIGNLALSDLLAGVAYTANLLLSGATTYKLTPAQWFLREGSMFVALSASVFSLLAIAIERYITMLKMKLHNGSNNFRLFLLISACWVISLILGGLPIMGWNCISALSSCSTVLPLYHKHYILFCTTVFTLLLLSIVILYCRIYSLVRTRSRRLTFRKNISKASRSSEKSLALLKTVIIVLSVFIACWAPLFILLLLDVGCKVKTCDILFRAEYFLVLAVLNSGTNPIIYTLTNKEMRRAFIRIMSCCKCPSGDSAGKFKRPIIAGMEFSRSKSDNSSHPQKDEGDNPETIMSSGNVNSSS

The target in test [4] is T4, S1P5 (Homo sapiens, UniProt Q9H228). The description is as above. The test is classed as biochemical. Details: expressed in transfected cells; membrane preparation. To be noted: [35S]GTPγS, CHO membranes, SPA. On the procedure: as §1, §2
Target sequence in this assay (Q9H228 whole entry): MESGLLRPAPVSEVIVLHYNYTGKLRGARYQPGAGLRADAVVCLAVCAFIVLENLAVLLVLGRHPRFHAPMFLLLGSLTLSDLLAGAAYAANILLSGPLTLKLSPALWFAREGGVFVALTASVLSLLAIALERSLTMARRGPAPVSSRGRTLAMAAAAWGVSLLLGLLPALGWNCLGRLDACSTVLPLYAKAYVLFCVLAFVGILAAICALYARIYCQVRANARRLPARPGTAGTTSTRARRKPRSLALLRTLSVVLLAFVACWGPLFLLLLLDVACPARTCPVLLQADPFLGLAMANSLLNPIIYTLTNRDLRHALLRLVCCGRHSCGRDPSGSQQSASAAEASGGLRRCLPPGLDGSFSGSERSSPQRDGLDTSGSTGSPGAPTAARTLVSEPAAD
For test [5], the system named is peripheral blood lymphocytes. The test is described as follows: Blood Lymphocyte Depletion assay in Lewis rats. The test is classed as in vivo. To be noted: intravenous. As for the experimental part: Percent of Lymphocyte Depletion in Lewis Rats
The lymphocyte homing property may be measured in following Blood Lymphocyte Depletion assay:
A S1P receptor agonist or the vehicle is administered intravenously to rats. […] In this assay, the S1P receptor agonist depletes peripheral blood lymphocytes, e.g. by 50%, when administered at a dose of e.g. <20 mg/kg. Preferred S1P receptor agonists are further compounds which in addition to their S1P binding properties internalize/desensitize S1P receptors, thereby antagonizing inflammatory processes driven by lysophospholipids, including i.e. sphingosine 1-phosphate (S1P), sphingophosphorylcholine (SPC), lysophosphatidic acid (LPA), and others, on vasculature cells, e.g. endothelial cells. The internalization/desensitization capacity of compounds will be determined using CHO cells transfected with a human myc-tagged S1P receptor.

In test [6] the target is T2, S1P4. To be noted: background statement; cited from earlier work.
For test [7], the target named is T4, S1P5. The following applies: background statement; cited from earlier work.
Target sequence in this assay (Q9H228 whole entry, species assumed): as the sequence (Q9H228 whole entry) above
For test [8], the target named is T1, S1P3. The following applies: background statement, about 10-fold lower affinity; cited from earlier work.
Target sequence in this assay (Q99500 whole entry, species assumed): as the sequence (Q99500 whole entry) above
The target of test [9] is S1P2 (Homo sapiens, UniProt O95136). The following applies: background statement; cited from earlier work.
Sequence of S1P2 (O95136 whole entry, species assumed): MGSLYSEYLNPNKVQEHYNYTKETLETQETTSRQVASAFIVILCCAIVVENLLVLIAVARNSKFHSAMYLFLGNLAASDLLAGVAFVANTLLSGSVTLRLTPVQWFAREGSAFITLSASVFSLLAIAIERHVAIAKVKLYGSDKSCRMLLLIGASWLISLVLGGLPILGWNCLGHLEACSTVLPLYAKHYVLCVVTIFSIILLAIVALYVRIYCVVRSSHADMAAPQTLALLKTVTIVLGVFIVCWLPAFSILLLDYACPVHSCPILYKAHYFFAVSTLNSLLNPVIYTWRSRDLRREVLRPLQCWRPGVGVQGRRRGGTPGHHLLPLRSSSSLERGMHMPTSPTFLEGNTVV
In test [10] the target is T3, S1P1. The following applies: background statement; cited from earlier work.
Target sequence in this assay (P21453 whole entry, species assumed): as the sequence (P21453 whole entry) above

Structures can show the parent of a compound that is named as a salt.

Regarding `C=C(I)CCCCOc1ccc(CCC(N)(CO)COP(=O)(O)O)cc1` (racemic) [Example F, (R/S)-Phosphoric acid mono-{2-amino-2-hydroxymethyl-4-[4-(5-iodo-hex-5-enyloxy)-phenyl]-butyl}ester], the EC50 (in general, the concentration that produces a half-maximal response) in test [1] was found to be 8.6 nM; in test [2], 2.9 nM; in test [3], 1.6 nM; in test [4], 1.4 nM.

In the case of `CCCCCCCCc1ccc(CCC(N)(CO)CO)c(I)c1` [Example H, 2-Amino-2-[2-(2-iodo-4-octylphenyl)ethyl]-1,3-propandiol], the “Percent of Lymphocyte Depletion” value in test [5] (2 hours post treatment) was 67%; in [5] (10 hours post treatment), 89%; in test [5] (24 hours post treatment), 89%.

Consider `CCCCCCCCc1ccc(CCC(N)(CO)CO)cc1I` [Example G, 2-Amino-2-[2-(3-iodo-4-octylphenyl)ethyl]-1,3-propandiol], for which the entries for the “Percent of Lymphocyte Depletion” value in [5] (2 hours post treatment), in test [5] (10 hours post treatment) and in [5] (24 hours post treatment) were 51%, 88% and 87%, respectively.

`CCCCCCCCc1ccc(CC[C@](N)(CO)COP(=O)(O)O)cc1I` [Example J]: the EC50 was determined as 84 nM in test [1], 4.9 nM in test [2], 0.17 nM in test [3] and 2 nM in test [4].

For the compound `CCCCCCCOc1ccc(CC[C@](N)(CO)COP(=O)(O)O)cc1I` [Example L, Phosphoric acid mono-{(S)-2-amino-2-hydroxymethyl-4-[2-(3-iodo-4-(heptyloxy)phenyl)butyl]}ester], the EC50 in test [3] amounted to 0.3 nM; in test [4], 0.7 nM.

`C=C(I)CCCCOc1ccc(CCC(N)(CO)CO)cc1` [Example E, 2-Amino-2-{2-[4-(5-iodo-hex-5-enyloxy)-phenyl]-ethyl}-propane-1,3-diol HCl salt]: the “Percent of Lymphocyte Depletion” value is listed as 64% in test [5] (2 hours post treatment), 82% in test [5] (10 hours post treatment) and 80% in test [5] (24 hours post treatment).

Turning to `NC(CO)(CCc1ccc(OCCCC/C=C\I)cc1)COP(=O)(O)O` (racemic) [Example D, (R/S)-phosphoric acid mono-{2-amino-2-hydroxymethyl-4-[4-((z)-6-iodo-hex-5-enyloxy)-phenyl]-butyl}ester], the EC50 was 3 nM in test [1], 1.9 nM in test [2], 1.3 nM in [3] and 1.1 nM in test [4].

On to `NC(CO)(CCc1ccc(OCCCC/C=C/I)cc1)COP(=O)(O)O` (racemic) [Example B, (R/S)-phosphoric acid mono-{2-amino-2-hydroxymethyl-4-[4-((E)-6-iodo-hex-5-enyloxy)-phenyl]-butyl}ester], for which the EC50 came out at 1.2 nM in test [1], 0.84 nM in test [2], 0.69 nM in test [3] and 0.62 nM in test [4].

As for `CCCCCCCCc1ccc(CCC(N)(CO)CO)cc1` [FTY720, 2-amino-2-[2-(4-octylphenyl)ethyl]propane-1,3-diol], the “affinity to S1P4” value in test [6] is recorded as 0.6 nM. Moreover, the “affinity to S1P5” value in test [7] is reported as 0.3 nM. For the same compound, the results for the “Percent of Lymphocyte Depletion” value in [5] (2 hours post treatment), in test [5] (10 hours post treatment) and in test [5] (24 hours post treatment) were 71%, 86% and 86%, respectively. Also, the “affinity to S1P3” value in test [8] was 3.1 nM. In test [9], the “binding to S1P2” value was “not”. Also, the “affinity to S1P1” value in test [10] was 0.3 nM.

As for `CCCCCCCCc1ccc(CC[C@](N)(CO)COP(=O)(O)O)c(I)c1` [Example K, Phosphoric acid mono-{(S)-2-amino-2-hydroxymethyl-4-[2-(2-iodo-4-octylphenyl)butyl]}ester], the EC50 in test [1] is 46 nM; in test [2], 7.1 nM; in test [3], 0.24 nM; in [4], 1.5 nM.
